In the CombiSolv-Exp solvation set (Vermeire and Green 2021):

Assay: solvent given as SMILES

O=c1cc(-c2ccc(O)c(O)c2)oc2cc(O)cc(O)c12
Conditions | solvation free energy, 298 K [kcal/mol]
in CC(C)O | -25.4
in CCCCO | -25.2
in CCCO | -25.5
in CCO | -25.5

CC(C)(C)c1ccccc1
Conditions | solvation free energy, 298 K [kcal/mol]
in C1CCOC1 | -6.93
in CC#N | -5.86
in CC(C)O | -5.63
in CO | -5.52
in O | -0.42

CCN(CC)c1c([N+](=O)[O-])cc(C(F)(F)F)c(N)c1[N+](=O)[O-]
Conditions | solvation free energy, 298 K [kcal/mol]
in O | -5.66

ClC(Cl)(Cl)Cl
Conditions | solvation free energy, 298 K [kcal/mol]
in Brc1cccc2ccccc12 | -3.92
in C1CCCC1 | -4.4
in C1CCOC1 | -4.65
in C1COCCO1 | -4.32
in C=CCCCCCCCCCCCCCC | -3.81
in CC#N | -3.66
in CC(=O)CC(C)C | -4.22
in CC(=O)N(C)C | -4.52
in CC(=O)OCc1ccccc1 | -3.97
in CC(C)(C)O | -3.74
in CC(C)=O | -4.15
in CC(C)CCCC(C)CCCC(C)CCCCC(C)CCCC(C)CCCC(C)C | -3.74
in CCC(C)=O | -4.15
in CCCCCC | -4.14
in CCCCCCC | -4.09
in CCCCCCCC | -3.98
in CCCCCCCCC=CCCCCCCCC(=O)OCC(COC(=O)CCCCCCCC=CCCCCCCCC)OC(=O)CCCCCCCC=CCCCCCCCC | -4
in CCCCCCCCCCCCCC | -3.8
in CCCCCCCCCCCCCCCC | -3.85
in CCCCCCCCCOC(=O)c1ccccc1C(=O)OCCCCCCCCC | -3.85
in CCCCCCCCN(CCCCCCCC)CCCCCCCC | -3.79
in CCCCCCCCO | -3.79
in CCCCCCO | -3.84
in CCCCCN(CCCCC)CCCCC | -3.96
in CCCCCl | -4.28
in CCCCN(C=O)CCCC | -4.11
in CCCCN(CCCC)CCCC | -3.84
in CCCCO | -3.87
in CCCCOC | -4.39
in CCCCOC(C)=O | -4.26
in CCCCOCC | -4.29
in CCCCOCCCC | -4.16
in CCCO | -3.75
in CCCOCCC | -4.25
in CCO | -3.74
in CCOC(=O)c1ccccc1C(=O)OCC | -3.77
in CCOC(C)=O | -4.23
in CCOCC | -4.41
in CI | -4.51
in CN1CCCC1=O | -4.16
in CNC(C)=O | -3.9
in CO | -3.66
in CS(C)=O | -3.66
in CSC | -4.63
in Cc1ccc(C)cc1 | -4.35
in Cc1cccc(C)c1 | -4.29
in Cc1ccccc1C | -4.34
in ClC(Cl)Cl | -4.43
in ClCCCl | -4.15
in NC=O | -2.16
in O | 0.07
in O=C1CCCCC1 | -4.32
in S=C=S | -4.52
in [2H]O[2H] | -0.62
in c1ccc2ncccc2c1 | -4.07

O=O
Conditions | solvation free energy, 298 K [kcal/mol]
in Brc1ccccc1 | 1.16
in C1CCCCC1 | 0.75
in C1CCOC1 | 0.82
in C1COCCO1 | 1.1
in CC(C)(C)O | 0.78
in CC(C)=O | 0.76
in CC(C)CC(C)(C)C | 0.51
in CC(C)CO | 0.89
in CC(C)O | 0.89
in CCC(C)=O | 0.76
in CCC(C)O | 0.91
in CCCC(C)=O | 0.81
in CCCCC(C)=O | 0.86
in CCCCCC | 0.59
in CCCCCCC | 0.64
in CCCCCCCC | 0.7
in CCCCCCCCC | 0.73
in CCCCCCCCCC | 0.77
in CCCCCCCCCCC | 0.79
in CCCCCCCCCCCC | 0.83
in CCCCCCCCCCCCC | 0.87
in CCCCCCCCCCCCCC | 0.89
in CCCCCCCCCCCCCCC | 0.92
in CCCCCCCCCCCCCCCC | 0.94
in CCCCCCCCCCCO | 1.1
in CCCCCCCCCCO | 1.09
in CCCCCCCCCO | 1.06
in CCCCCCCCO | 1.04
in CCCCCCCO | 1.02
in CCCCCCO | 0.98
in CCCCCO | 0.95
in CCCCO | 0.93
in CCCCOCCCC | 0.78
in CCCO | 0.9
in CCCOCCC | 0.65
in CCO | 0.85
in CCOC(C)=O | 0.9
in CCOCC | 0.48
in CNC=O | 1.12
in CO | 0.82
in COC(C)=O | 0.77
in Cc1ccc(C)cc1 | 0.83
in Cc1cccc(C)c1 | 0.85
in Cc1ccccc1C | 0.88
in ClC(Cl)(Cl)Cl | 0.71
in ClC(Cl)Cl | 0.97
in ClCCCl | 1.09
in ClCCl | 0.9
in Clc1ccccc1 | 1
in Fc1ccccc1 | 0.56
in Ic1ccccc1 | 1.3
in O | 2.06
in O=C1CCCC1 | 1.1
in O=C1CCCCC1 | 1.13

CC(=O)Oc1ccccc1C(=O)O
Conditions | solvation free energy, 298 K [kcal/mol]
in C1CCOC1 | -14.3
in C1COCCO1 | -14.1
in CC(=O)CC(C)C | -13.2
in CC(=O)OC(C)C | -13.1
in CC(C)(C)O | -13.7
in CC(C)=O | -14.1
in CC(C)CCO | -13.4
in CC(C)CO | -13.2
in CC(C)O | -13.6
in CC(C)OC(C)C | -12.4
in CCC(C)=O | -13.7
in CCC(C)O | -13.5
in CCCC(=O)OC | -13.1
in CCCC(C)O | -13.3
in CCCCCCCCCCO | -12.9
in CCCCCCCO | -13.1
in CCCCCCO | -13.2
in CCCCCO | -13.3
in CCCCO | -13.4
in CCCCOC(C)=O | -13.1
in CCCO | -13.6
in CCO | -14
in CCOC(C)=O | -13.5
in CCOCC | -13.2
in CO | -14.1
in COC(C)(C)C | -13.2
in COC(C)=O | -13.6

CCC=O
Conditions | solvation free energy, 298 K [kcal/mol]
in C1CCOC1 | -3.82
in C=CCCCCCCCCCCCCCC | -2.47
in CC(C)CCCC(C)CCCC(C)CCCCC(C)CCCC(C)CCCC(C)C | -2.57
in CCC(C)=O | -3.85
in CCCCCCCC | -2.54
in CCCCCCCCCCCCCCCC | -2.41
in CCCCCCCCO | -4.15
in NC=O | -3.26
in O | -3.35
in [2H]O[2H] | -3.31

O=[N+]([O-])c1cccc(O)c1
Conditions | solvation free energy, 298 K [kcal/mol]
in CCCCCC | -7.79
in CCCCCCC | -7.72
in CCCCCCCC | -7.83
in CCCCCCCCCC | -7.74
in O | -9.63

CCCBr
Conditions | solvation free energy, 298 K [kcal/mol]
in C=CCCCCCCCCCCCCCC | -3.56
in ClC(Cl)(Cl)Cl | -4.17
in O | -0.56

CCCCCCCCCC(C)=O
Conditions | solvation free energy, 298 K [kcal/mol]
in O | -2.15

O=C(O)c1cccnc1Nc1cccc(C(F)(F)F)c1
Conditions | solvation free energy, 298 K [kcal/mol]
in C1COCCO1 | -17.9
in CC(C)=O | -17.7
in CCCCCCCCO | -17.1
in CCOC(C)=O | -17.3
in CCOCC | -16.5
in CN(C)C=O | -19.1
in Clc1ccccc1 | -15.5
in NC=O | -16.1
in O | -12.8

C=C(C)C1CCC2(C)CCCC(=C)C2C1 (stereo unspecified)
Conditions | solvation free energy, 298 K [kcal/mol]
in O | -0.05

CCCC(C)(O)CC (stereo unspecified)
Conditions | solvation free energy, 298 K [kcal/mol]
in CCCCCCCC | -5.4
in CCCCCCCCCC | -5.34

CCC(O)C(C)C (stereo unspecified)
Conditions | solvation free energy, 298 K [kcal/mol]
in CC(C)CC(C)(C)C | -4.53
in CCCCCCCC | -4.72
in CCCCCCCCCC | -4.67
in O | -3.88
